{"source": "paper PMC7180617", "about": "“Biological Evaluation of 3-Benzylidenechromanones and Their Spiropyrazolines-Based Analogues” (Molecules, 2020)", "key": {"[1]": {"test_system": "red blood cells (RBC membrane integrity)", "test": "Red blood cell lysis assay", "type": "cell-based", "conditions": "2% RBC suspension, 37 °C, 1 h", "from_the_text": "All synthesized compounds with potential biological activity have to be tested for blood compatibility since xenobiotics will react with blood cells upon administration. In this case, biocompatibility refers to the quantification of cellular and plasma components of the blood. The measurement of the integrity of RBC membrane is considered a simple and reliable method for estimating hemocompatibility.\nThe studies on biological material were approved by the Bioethics Committee of the Medical University of Lodz, Poland (RNN/109/16/KE). The blood samples were obtained from healthy donors at the Blood Donation Centre in Lodz. The procedure for plasma preparation for erythrotoxicity studies was described previously. The influence of synthesized compounds as well as two reference compounds flavanone and chromanone on RBC membrane integrity was performed by lysis assay which was conducted according to our previous protocol. Briefly, 2% RBC suspension in 0.9% NaCl was incubated at 37 °C for one hour with the tested compounds at various concentrations corresponding to their activity towards cancer cell lines or 0.9% NaCl (control). The samples were centrifuged at 3000 rpm for 10 min and the absorbance of the supernatant was measured at 550 nm. The results are presented as percentage of haemolysis where a sample containing 10 μL of 2.0% v/v Triton X-100 was regarded as a positive control contributing to 100% of haemolysis. A sample containing saline solution represented spontaneous haemolysis of RBCs (control). The studies were performed on four biological samples obtained from different blood donors (n = 4). The results are presented as mean ± standard deviation (SD). The coefficient of variability for the method was counted: W = 9.51%, n = 5."}, "HL-60 cells [2]": {"test_system": "HL-60 cells", "test": "MTT cytotoxicity assay, HL-60", "type": "cell-based, human", "conditions": "Homo sapiens, HL-60, 48 h, MTT, 46 h + 2 h incubation", "protocol": "The first stage of the study used the MTT viability test to determine the cytotoxicity of ten compounds, i.e., 3-arylidenechromanone, 3-arylideneflavanone, spirochromanone and spiro- flavanone analogues, against four human cancer cell lines: HL-60, NALM-6, WM-115 and COLO-205.\nCytotoxicity was tested against human skin melanoma cells (WM-115, ECACC, Salisbury, UK), two human leukemia cell lines, viz. promyelocytic leukemia (HL-60) and lymphoblastic leukemia (NALM-6), and human colon adenocarcinoma cells (COLO-205). The cell lines COLO-205, WM-115 and HL-60 used in this work came from the ATCC American Type Culture Collection (Manassas, VA, USA), whereas the NALM-6 cell line was purchased from the German Collection of Microorganisms and Cell Cultures (Braunschweig, Germany). The leukaemia cells and colon adenocarcinoma were cultured in RPMI 1640 medium (Invitrogen, Grand Island, NY, USA) supplemented with 10% fetal bovine serum (FBS; Invitrogen) and gentamicin (25 µg/mL; KRKA, Novo Mesto, Slovenia). For melanoma WM-115 cells, Dulbecco’s minimal essential medium (DMEM; Invitrogen) was used. All cell lines were cultured at 37 °C in a humidified atmosphere of 5% CO2 in air.\nFor all experiments, the studied compounds were dissolved in DMSO (Sigma-Aldrich) and were further diluted in culture medium to obtain <0.1% DMSO concentration. In each experiment, controls with and without 0.1% DMSO were performed. The cytotoxicity of all compounds and of the reference compounds 4-chromanone and 3-benzylideneflavanone was determined by the MTT assay, i.e., 3-(4,5-dimethylthiazol-2-yl)-2,5-diphenyltetrazolium bromide (Sigma, St. Louis, MO, USA), which measures cellular dehydrogenase activity. Exponentially growing cells were seeded a day before the experiment onto a 96-well microplates (Nunc, Roskilde, Denmark) at a density up to 6–8 × 10^3 cells/well (depending on the cell line). Subsequently, various concentrations of the studied compounds freshly prepared in DMSO and diluted with complete culture medium were added. All compounds were tested for their cytotoxicity at a final concentration of 10^−7–10^−3 M. After 46 h of incubation with the studied compounds, the cells were treated with the MTT reagent and incubation was continued for another two hours. MTT – formazan crystals were dissolved in 20% sodium dodecyl sulphate (SDS, Sigma-Aldrich) and 50% DMF (Sigma-Aldrich) at pH 4.7; following this, absorbance was read at 570 nm on a multifunctional Victor ELISA-plate reader (Perkin Elmer, Turku, Finland). The IC50 values, i.e., the concentration of the test compound required to reduce the cell survival fraction to 50% of controls, were calculated from concentration-response curves and used as a measure of the sensitivity of the cells to a given treatment. As a control, cultured cells were grown in the absence of drugs. The data points represent the means of at least five to ten repeats ± standard deviation (S.D.)."}, "HL-60 cells [3]": {"test_system": "HL-60 cells", "test": "Cell cycle analysis by flow cytometry (propidium iodide)", "type": "cell-based, human", "conditions": "for cell cycle, G1, mean / cell cycle, G2/M, mean / cell cycle, S, mean: mean of n=2; for cell cycle distribution, G1 / cell cycle distribution, G2 / cell cycle distribution, G2/M: HL-60, 20 h, mean ± SD, n = 2", "in_short": "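HL-60 (CCL 240) cells were grown in RPMI 1640 with 20% FBS, fixed and stored at −20 °C for 2–3 days. RNase A was applied at 37 °C for 10 min, then propidium iodide for 30 min at RT in the dark. Cell-cycle distribution was determined by flow cytometry from 10,000 gated cells.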"}, "[4]": {"conditions": "Figure S3, HL-60, 0.5 × IC50 (µM: quercetin 29, 1 1.5, 7 18, 10 4.7, 11 4.5, 12 6)"}, "[5]": {"conditions": "Figure S3, HL-60, 0.5 × IC50, each of two repetitions"}, "[6]": {"conditions": "Figure S3, HL-60, 1 × IC50 (µM: quercetin 58, 1 3, 7 35, 10 9.4, 11 9, 12 12)"}, "[7]": {"conditions": "Figure S3, HL-60, 1 × IC50, each of two repetitions"}, "[8]": {"conditions": "0.5 × IC50 (µM: quercetin 29, 2 1.5, 7 18, 12 6, 11 4.5, 10 4.7)"}, "[9]": {"conditions": "1 × IC50 (µM: quercetin 58, 2 3, 7 35, 12 12, 11 9, 10 9.4)"}}, "note": "Values joined by “and” are separate entries in the source; they are usually repeats but may differ in a detail not shown here. Equal values may be shown once.", "data": [{"smiles": "O=C1/C(=C/c2ccccc2)COc2ccccc21", "note": "[Compound 7, (E)-3-benzylidene-chroman-4-one]", "values": [{"measurement": "effect on RBC hemolysis / erythrocyte membrane integrity (in words)", "setting": "[1]", "value": "no significant effects on RBC hemolysis were observed up to 35 µM"}, {"measurement": "IC50", "setting": "HL-60 cells [2]", "value": "34.8 ± 2.87", "unit": "µM"}, {"measurement": "cell cycle, G1, mean", "setting": "HL-60 cells [3]; [4]", "value": "57,71%"}, {"measurement": "cell cycle, G2/M, mean", "setting": "HL-60 cells [3]; [4]", "value": "20,82%"}, {"measurement": "cell cycle, S, mean", "setting": "HL-60 cells [3]; [4]", "value": "21,48%"}, {"measurement": "cell cycle, G1, single repetitions", "setting": "HL-60 cells [3]; [5]", "value": "52,64% and 62,77%"}, {"measurement": "cell cycle, G2/M, single repetitions", "setting": "HL-60 cells [3]; [5]", "value": "18,44% and 23,20%"}, {"measurement": "cell cycle, S, single repetitions", "setting": "HL-60 cells [3]; [5]", "value": "18,79% and 24,16%"}, {"measurement": "cell cycle, G1, mean", "setting": "HL-60 cells [3]; Figure S3, HL-60, 1 × IC50 (µM in parenthesis: quercetin 58, 1 3, 7 35, 10 9.4, 11 9, 12 12)", "value": "50,37%"}, {"measurement": "cell cycle, G2/M, mean", "setting": "HL-60 cells [3]; [6]", "value": "26,09%"}, {"measurement": "cell cycle, S, mean", "setting": "HL-60 cells [3]; [6]", "value": "23,55%"}, {"measurement": "cell cycle, G1, single repetitions", "setting": "HL-60 cells [3]; [7]", "value": "51,06% and 49,68%"}, {"measurement": "cell cycle, G2/M, single repetitions", "setting": "HL-60 cells [3]; [7]", "value": "26,04% and 26,13%"}, {"measurement": "cell cycle, S, single repetitions", "setting": "HL-60 cells [3]; [7]", "value": "22,89% and 24,20%"}, {"measurement": "cell cycle distribution, G1", "setting": "HL-60 cells [3]; [8]", "value": "57.7 ± 7.2", "unit": "%"}, {"measurement": "cell cycle distribution, G2", "setting": "HL-60 cells [3]; [8]", "value": "21.5 ± 3.8", "unit": "%"}, {"measurement": "cell cycle distribution, G2/M", "setting": "HL-60 cells [3]; [8]", "value": "20.8 ± 3.4", "unit": "%"}, {"measurement": "cell cycle distribution, G1", "setting": "HL-60 cells [3]; [9]", "value": "50.4 ± 1.0", "unit": "%"}, {"measurement": "cell cycle distribution, G2", "setting": "HL-60 cells [3]; [9]", "value": "23.5 ± 0.9", "unit": "%"}, {"measurement": "cell cycle distribution, G2/M", "setting": "HL-60 cells [3]; [9]", "value": "26.1 ± 0.1", "unit": "%"}, {"measurement": "cells arrested in G2/M phase", "setting": "HL-60 cells [3]; HL-60, concentrations of IC50 and 0.5 × IC50", "value": "20–26%"}]}]}
